Measured values as given in patent US8916604B2, “Compositions and methods for epigenetic modification of nucleic acid sequences” (Rutgers, The State University of New Jersey, priority 2011, dated 2014).
Read-outs that look alike come from different tables or passages of the source.

Key:
[1] = test system: DNMT3b; test: Western blot in TRAMP C1 cells; format: cell-based, mouse
Protocol: (§1) The DIM used in the study contains approximately 98% of DIM purchased from Sigma-Aldrich t St. Louis, Mo., USA), TRAMP C1 cells (provided by Dr. Barbara Foster, Department of Pharmacology and Therapeutics, Roswell Park Cancer institute, Buffalo. NY), originally derived from TRAMP prostate tumor, were cultured in Dulbecco's Modified Eagle's Medium (Invitrogen Corp., Carlsbad, Calif. U.S.A.) supplemented with 10% (V/V) fetal bovine serum (FBS) (Invitrogen Corp., Grand Island, N.Y., U.S.A.), penicillin 100 U/ml, and streptomycin 100 μg/ml (Invitrogen Corp., Grand Island, N.Y., U.S.A.), Cells were maintained in a humidified incubator with 5% CO2 at 37° C. Cells were seeded in 10 cm plates for 24 h and then treated with 0.1% DMSO (control) or different concentrations of DIM in 1% FBS containing medium for 5 days. The medium was changed every 2 days (20), The TRAMP C1 cells or dorso-lateral prostate tissues collected from treated and control groups were pooled and homogenized with RIPA buffer (Cell Signaling Technology, Danvers, Mass., U.S.A.) and 10 μg/ml protease inhibitor cocktail (EMD Chemicals, Philadelphia, Pa., U.S.A.). Protein (20 μg) was loaded onto 4-15% SDS-PAGE (Bio-Rad Laboratories, Hercules, Calif., U.S.A.). After separation by SDS-PAGE, the protein was transferred onto nitrocellulose membrane (Millipore Corp., Billerica, Mass., U.S.A.), and then was blocked in 5% bovine serum albumin (BSA) (Fisher Scientific, Fair Law, J. U.S.A.) in tris buffer saline tween-20 (TBST) solution for 1 h. Membranes were probed using the different mono- or polyclonal-antibodies (1:1000) overnight at 4″C. Blots were washed with TBST solution for 15 min 4 times and incubated with the respective secondary antibodies for 1 hr. After washing min 4 times with TBST solution, the immunoreactive bands were determined by adding SuperSignal West Femto mix (1:1 mix of stable peroxide buffer and luminol/enhancer solution (Thermo Scientific, Rockford, Ill., U.S.A.) to detect immunoreactive bands. The bands were visualized and quantified by BioRad ChemiDoc XRS system (Hercules, Calif., U.S.A.). The primary antibodies used were β-actin, Nrf2, NQO1 (Santa Cruz Biotechnology, Santa Cruz, Calif., U.S.A.), HDAC1, HDAC2, HDAC3, HDAC4 (Cell Signaling Technology Inc., Danvers Mass., U.S.A.), HDAC8 (Proteintech Group Inc., Chicago, Ill., U.S.A.) and DNMT1, DNMT3a, DNMT3b (Imgenex, San Diego, Calif., U.S.A.). The secondary antibodies used were goat polyclonal IgG for β-actin and NQO1, rabbit polyclonal IgG for Nrf2, HDAC1, HDAC2, HDAC3, HDAC4 and HDAC8, and mouse polyclonal IgG for DNMT1, DNMT3a, DNMT3b (Santa Cruz Biotechnology, Santa Cruz, Calif., U.S.A.),

[2] = test system: NQO1; test: Western blot in TRAMP C1 cells; format: cell-based, mouse
Protocol: as §1

[3] = test system: Nrf2; test: Western blot in TRAMP C1 cells; format: cell-based, mouse
Protocol: as §1

[4] = test system: HDAC3; test: Western blot in TRAMP C1 cells; format: cell-based, mouse
Protocol: as §1

[5] = test system: DNMT1; test: Western blot in TRAMP C1 cells; format: cell-based, mouse
Protocol: as §1

[6] = test system: HDAC2; test: Western blot in TRAMP C1 cells; format: cell-based, mouse
Protocol: as §1

[7] = test system: NQO1; test: Western blot of TRAMP dorso-lateral prostate tissues; format: in vivo, mouse; conditions: D-G1 and D-G2; undetectable in control
Protocol: (§2) The TRAMP C1 cells or dorso-lateral prostate tissues collected from treated and control groups were pooled and homogenized with RIPA buffer (Cell Signaling Technology, Danvers, Mass., U.S.A.) and 10 μg/ml protease inhibitor cocktail (EMD Chemicals, Philadelphia, Pa., U.S.A.). Protein (20 μg) was loaded onto 4-15% SDS-PAGE (Bio-Rad Laboratories, Hercules, Calif., U.S.A.). After separation by SDS-PAGE, the protein was transferred onto nitrocellulose membrane (Millipore Corp., Billerica, Mass., U.S.A.), and then was blocked in 5% bovine serum albumin (BSA) (Fisher Scientific, Fair Law, J. U.S.A.) in tris buffer saline tween-20 (TBST) solution for 1 h. […] After washing min 4 times with TBST solution, the immunoreactive bands were determined by adding SuperSignal West Femto mix (1:1 mix of stable peroxide buffer and luminol/enhancer solution (Thermo Scientific, Rockford, Ill., U.S.A.) to detect immunoreactive bands. The bands were visualized and quantified by BioRad ChemiDoc XRS system (Hercules, Calif., U.S.A.). The primary antibodies used were β-actin, Nrf2, NQO1 (Santa Cruz Biotechnology, Santa Cruz, Calif., U.S.A.), HDAC1, HDAC2, HDAC3, HDAC4 (Cell Signaling Technology Inc., Danvers Mass., U.S.A.), HDAC8 (Proteintech Group Inc., Chicago, Ill., U.S.A.) and DNMT1, DNMT3a, DNMT3b (Imgenex, San Diego, Calif., U.S.A.). […]

[8] = test system: Nrf2; test: as above; format: in vivo, mouse; conditions: D-G1 and D-G2; undetectable in control
Protocol: as §2

[9] = test system: HepG2-C8 cells; test: MTS cell viability assay; format: cell-based, human; conditions: Homo sapiens
Protocol: The stably transfected single clone HepG2-ARE-C8 (HepG2-C8) cell line has been established previously in our laboratory using the […]-luciferase reporter gene. The cells were maintained in Dulbecco's modified Eagle medium supplemented with 10% fetal bovine serum (FBS), 1.17 g/l sodium bicarbonate, and 100 unit/ml penicillin, 100 μg/ml streptomycin at 37° C. in a humidified incubator with 5% CO2. […] MTS] (Promega, Madison, Wis.). […] The cells were then treated with MTS for 1 h at 37° C. Absorbance of the formazan product was read at 490 nm with a μQuant Biomolecular Spectrophotometer from Bio-Tek Instruments Inc. (Winooski, Vt.). Independent control studies were conducted using 1% and 10% FBS medium.

SMILES: c1ccc2c(Cc3c[nH]c4ccccc34)c[nH]c2c1 [DIM, 3,3′-diindolylmethane]
- DNMT3b protein level [1]: suppressed
- NQO1 protein levels [2]: significantly induced
- Nrf2 protein levels [3]: significantly induced
- HDAC3 protein expression [4]: suppress
- DNMT1 protein level [5]: suppressed
- HDAC2 protein expression [6]: suppress
- NQO1 protein expression [7]: induced
- Nrf2 protein expression [8]: induced
- IC50 ([9]; HepG2C8, 1% FBS medium, read-out: cell viability inhibitory concentrations (IC50)): 51 µM
- IC50 ([9]; HepG2C8, 10% FBS medium (data not shown), read-out: cell viability IC50): ~85 µM
